Experimental findings from ChEMBL document CHEMBL5252606, “Isolation and Characterization of Anti-Mycobacterial Natural Products from a Petrosia sp. Marine Sponge” (J Nat Prod, 2023) are described below.

Values after ≈ are worked out from the molar mass of the structure shown. Active and inactive are the calls of the source. No cut-off for these calls is given here.

Series [1] has as its system Mycobacterium tuberculosis. Description: Antitubercular activity against Mycobacterium tuberculosis H37Rv assessed as inhibition of bacterial growth at 25 ug/ml by alamar blue assay. The class given is functional, organism-based. Conditions: dose 25.0 µg/ml. (Resazurin is reduced to fluorescent resorufin, in cell work by metabolically active cells.)
The subject of series [2] is Mycobacterium tuberculosis. As to the kind of experiment: Antitubercular activity against Mycobacterium tuberculosis expressing luxCDABE operon assessed as inhibition of bacterial growth under hypoxic conditions by low oxygen recovery assay. The format is functional.
Series [3] deals with Mycobacterium tuberculosis. Description: Antitubercular activity against Mycobacterium tuberculosis H37Rv assessed as inhibition of bacterial growth by alamar blue assay. The format is functional.
In series [4] the test system is P388. Description: Cytotoxicity against mouse P388 cells. The class given is functional, cell-based.
Series [5] has as its system Mycobacteroides abscessus. Description: Antitubercular activity against Mycobacterium abscessus ATCC 19977 assessed as inhibition of bacterial growth incubated for 4 hrs by resazurin based fluorescence assay. The format is functional, organism-based.
Series [6] is described as follows: Cytotoxicity against African green monkey Vero cells assessed as inhibition of cell growth incubated for 3 days by resazurin based fluorescence assay. The format is toxicity. Conditions: African green monkey (Chlorocebus sabaeus).
The test system of series [7] is HCT-8. As to the kind of experiment: Cytotoxicity against human HCT-8 cells. The class given is functional, cell-based.
Series [8] deals with MCF7. Description: Cytotoxicity against human MCF7 cells. The class given is functional, cell-based.
Series [9] concerns A549. As to the kind of experiment: Cytotoxicity against human A549 cells. The class given is functional, cell-based.
In series [10] the test system is Mycobacterium avium. Description: Antitubercular activity against Mycobacterium avium ATCC 15769 assessed as inhibition of bacterial growth incubated for 24 hrs by resazurin based fluorescence assay. The format is functional, organism-based.
Series [11] relates to HeLa. As to the kind of experiment: Cytotoxicity against human HeLa cells. The class given is functional, cell-based.

With `CCO[C@@H]1OC[C@]23CCC[C@]1(C)[C@@H]2CC[C@]1(C)[C@@H]3CC[C@]2(C)Oc3ccc(OC)cc3C[C@@H]12`, in [1], the result was inactive.
Same read-out and setting: then `COc1ccc2c(c1)C[C@H]1[C@]3(C)CC[C@H]4[C@@]5(C)CCC[C@]4(CO[C@H]5O)[C@H]3CC[C@]1(C)O2`, with “inactive”; and `C[C@]12CCC[C@](C)(C(=O)O)[C@@H]1CC[C@]1(C)[C@@H]2CC[C@]2(C)Oc3ccc(O)cc3C[C@@H]12`, with “inactive”; and `COc1ccc2c(c1)C[C@H]1[C@]3(C)CC[C@@H]4[C@](C)(CCC[C@]4(C)C(=O)O)[C@H]3CC[C@]1(C)O2`, with “inactive”.
What is called MIC is the lowest concentration found to suppress growth. For `CC(=O)NC[C@H]1CN(c2ccc(N3CCOCC3)c(F)c2)C(=O)O1` [LINEZOLID], the MIC in [2] amounted to 1.7 µM (≈ 0.573 µg/mL); in series [3] it was 1 µM (≈ 0.337 µg/mL).
Turning to `COc1ccc2c(c1)C[C@H]1[C@]3(C)CC[C@@H]4[C@]5(CCC[C@@]4(C)C(=O)OC5)[C@H]3CC[C@]1(C)O2`, the outcome in series [1] was inactive.
The same measure, in the same setting: then `COc1ccc2c(c1)C[C@H]1[C@]3(C)CC[C@H]4[C@@]5(C)CCC[C@]4(CO[C@@H]5O)[C@H]3CC[C@]1(C)O2`, with “inactive”.
Consider `O=[N+]([O-])c1cn2c(n1)OC[C@@H](OCc1ccc(OC(F)(F)F)cc1)C2` [PRETOMANID], for which the minimal inhibitory concentration (MIC) in [2] worked out at 2 µM (≈ 0.719 µg/mL); in series [3], 0.2 µM (≈ 0.0719 µg/mL).
As to `CO[C@H]1/C=C/O[C@@]2(C)Oc3c(C)c(O)c4c(O)c(c(/C=N/N5CCN(C)CC5)c(O)c4c3C2=O)NC(=O)/C(C)=C\C=C\[C@H](C)[C@H](O)[C@@H](C)[C@@H](O)[C@@H](C)[C@H](OC(C)=O)[C@@H]1C` [RIFAMPIN], the MIC in [2] was determined as 0.09 µM (≈ 0.0741 µg/mL); in series [3], 0.04 µM (≈ 0.0329 µg/mL).
For `COc1nc2ccc(Br)cc2cc1[C@@H](c1ccccc1)[C@@](O)(CCN(C)C)c1cccc2ccccc12` [BEDAQUILINE] the same measures were 0.1 µM (≈ 0.0556 µg/mL) and 0.03 µM (≈ 0.0167 µg/mL).
Regarding `C[C@]12CCC[C@](C)(C=O)[C@@H]1CC[C@]1(C)[C@@H]2CC[C@]2(C)Oc3ccc(O)cc3C[C@@H]12`, the outcome in series [1] was inactive.
Turning to `NNC(=O)c1ccncc1` [ISONIAZID], the MIC is more than 128 µM in [2] and 0.2 µM (≈ 0.0274 µg/mL) in [3].
As a reminder, the IC50 is the concentration needed to halve the response being measured. As to `C#CC(O)/C=C/CCCCCCCCC/C=C\CCCCCCCCC/C=C/C(O)C#C` (configuration not stated), the IC50 in series [4], in [7], in series [8], in series [9] and in [11] was 200 nM throughout. Further, the result in [5] and in series [10] was inactive. For the same compound, the half-inhibitory concentration (IC50) at 3 days in series [6] was determined as 400 nM. For the same compound, the minimal inhibitory concentration (MIC) in series [2] amounted to 1 µM (≈ 0.441 µg/mL); in series [3], 1.4 µM (≈ 0.617 µg/mL).
